Experimental data taken from patent US10894817B2, “Fatty acid modified urocortin-2 analogs for the treatment of diabetes and chronic kidney disease” (priority 2016, dated 2021).
pEC50: −log10 of the molar value. Where two headings read alike, the source gives them in different places. Starred links: 1 amine or outer side, 2 acyl side, 3 side chain; linkers in the order of their positions; H or OH if unused. Non-standard residues stand in square brackets, D forms with d. Residues, ends and D or L forms follow the SMILES beside them. Groups on a side chain read outwards from the residue. *: point of attachment. C20 diacid = O=C(O)CCCCCCCCCCCCCCCCCCC(=O)*; C18 diacid = O=C(O)CCCCCCCCCCCCCCCCC(=O)*; γGlu = O=C(O)[C@H](CCC(=O)[*:2])N[*:1]; Palmitoyl = CCCCCCCCCCCCCCCC(=O)*; NMeI = CC[C@H](C)[C@H](NC)C(=O)O; AEEA = NCCOCCOCC(=O)O

Molecular target: T1, human CRHR2b (Homo sapiens, UniProt Q13324)
T1 construct: expressed in transfected cells; host or cells: Chinese Hamster Ovary (CHO) cells, transient transfection
T1 sequence (Q13324 1-438 isoform Q13324-2): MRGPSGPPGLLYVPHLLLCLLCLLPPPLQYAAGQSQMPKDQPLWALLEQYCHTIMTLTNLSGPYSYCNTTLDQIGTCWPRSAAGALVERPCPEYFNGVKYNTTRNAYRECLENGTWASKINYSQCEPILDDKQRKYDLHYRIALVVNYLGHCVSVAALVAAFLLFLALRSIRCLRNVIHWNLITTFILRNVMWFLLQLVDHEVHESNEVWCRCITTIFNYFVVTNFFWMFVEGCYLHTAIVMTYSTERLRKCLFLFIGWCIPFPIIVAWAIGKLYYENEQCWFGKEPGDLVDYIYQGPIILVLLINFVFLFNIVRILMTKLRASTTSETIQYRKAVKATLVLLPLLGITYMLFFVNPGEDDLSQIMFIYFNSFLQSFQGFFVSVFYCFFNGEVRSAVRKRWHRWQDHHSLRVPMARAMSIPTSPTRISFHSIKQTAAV
Assay: human CRHR2b cell-based cAMP assay
Outline: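 ED50 values are means ± SEM over several runs, curve-fitted from cAMP in pmol, calibrated against unlabeled-cAMP standards. Detection was HTRF competition, ratio 665/620 nm, after 30 min agonist exposure at 37 °C.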

[1] = cAMP assay, Table 26, compounds of Example 9, read-out: hCRHR2b Average EC50

| SMILES | pEC50 [1] | pEC50 |
| --- | --- | --- |
| CCCCCCCCCCCCCCCC(=O)N[C@@H](CCC(=O)N[C@@H](CCC(=O)NCCCC[C@H](NC(=O)[C@H](CCC(=O)O)NC(=O)[C@H](CCCCN)NC(=O)[C@H](CCC(=O)O)NC(=O)[C@H](CCC(N)=O)NC(=O)[C@H](CCCCN)NC(=O)[C@H](CCC(=O)O)NC(=O)[C@H](CCC(N)=O)NC(=O)[C@H](CCC(=O)O)NC(=O)[C@H](CC(C)C)NC(=O)[C@H](CC(C)C)NC(=O)[C@@H](NC(=O)[C@H](CCC(N)=O)NC(=O)[C@H](CC(C)C)NC(=O)[C@H](CC(C)C)NC(=O)CNC(=O)[C@@H](NC(=O)[C@@H]1CCCN1C(=O)[C@@H](NC(=O)[C@H](CC(=O)O)NC(=O)[C@H](CC(C)C)NC(=O)[C@H](CO)NC(=O)[C@H](CC(C)C)NC(=O)[C@@H](NC(=O)[C@@H](N)[C@@H](C)CC)C(C)C)C(C)C)[C@@H](C)CC)[C@@H](C)CC)C(=O)N[C@@H](CCC(N)=O)C(=O)N[C@@H](CCC(N)=O)C(=O)N[C@@H](C)C(=O)N[C@H](C(=O)N[C@H](C(=O)N[C@@H](CC(N)=O)C(=O)N[C@@H](C)C(=O)N[C@@H](CCCNC(=N)N)C(=O)N[C@H](C(=O)N[C@@H](CC(C)C)C(=O)N[C@@H](C)C(=O)N[C@@H](CCCNC(=N)N)C(=O)N[C@H](C(N)=O)C(C)C)[C@@H](C)CC)[C@@H](C)O)[C@@H](C)O)C(=O)O)C(=O)O [Compound 31] (H-IVLSLDVPIGLLQILLEQEKQEKEK([γGlu-γGlu-Palmitoyl])QQATTNARILARV-NH2) | 8.49 |  |
| CCCCCCCCCCCCCCCC(=O)N[C@@H](CCC(=O)NCCCC[C@H](NC(=O)[C@H](CC(C)C)NC(=O)[C@H](CC(C)C)NC(=O)[C@@H](NC(=O)[C@H](CCC(N)=O)NC(=O)[C@H](CC(C)C)NC(=O)[C@H](CC(C)C)NC(=O)CNC(=O)[C@@H](NC(=O)[C@@H]1CCCN1C(=O)[C@@H](NC(=O)[C@H](CC(=O)O)NC(=O)[C@H](CC(C)C)NC(=O)[C@H](CO)NC(=O)[C@H](CC(C)C)NC(=O)[C@@H](NC(=O)[C@@H](N)[C@@H](C)CC)C(C)C)C(C)C)[C@@H](C)CC)[C@@H](C)CC)C(=O)N[C@@H](CCC(N)=O)C(=O)N[C@@H](CCC(=O)O)C(=O)N[C@@H](CCCCN)C(=O)N[C@@H](CCC(N)=O)C(=O)N[C@@H](CCC(=O)O)C(=O)N[C@@H](CCCCN)C(=O)N[C@@H](CCC(=O)O)C(=O)N[C@@H](CCCCN)C(=O)N[C@@H](CCC(N)=O)C(=O)N[C@@H](CCC(N)=O)C(=O)N[C@@H](C)C(=O)N[C@H](C(=O)N[C@H](C(=O)N[C@@H](CC(N)=O)C(=O)N[C@@H](C)C(=O)N[C@@H](CCCNC(=N)N)C(=O)N[C@H](C(=O)N[C@@H](CC(C)C)C(=O)N[C@@H](C)C(=O)N[C@@H](CCCNC(=N)N)C(=O)N[C@H](C(N)=O)C(C)C)[C@@H](C)CC)[C@@H](C)O)[C@@H](C)O)C(=O)O [Compound 23] (H-IVLSLDVPIGLLQILLK([γGlu-Palmitoyl])QEKQEKEKQQATTNARILARV-NH2) |  | 7.75 |
| CCCCCCCCCCCCCCCC(=O)N[C@@H](CCC(=O)NCCCC[C@H](NC(=O)[C@H](CCC(=O)O)NC(=O)[C@H](CCC(N)=O)NC(=O)[C@H](CCCCN)NC(=O)[C@H](CCC(=O)O)NC(=O)[C@H](CCC(N)=O)NC(=O)[C@H](CCC(=O)O)NC(=O)[C@H](CC(C)C)NC(=O)[C@H](CC(C)C)NC(=O)[C@@H](NC(=O)[C@H](CCC(N)=O)NC(=O)[C@H](CC(C)C)NC(=O)[C@H](CC(C)C)NC(=O)CNC(=O)[C@@H](NC(=O)[C@@H]1CCCN1C(=O)[C@@H](NC(=O)[C@H](CC(=O)O)NC(=O)[C@H](CC(C)C)NC(=O)[C@H](CO)NC(=O)[C@H](CC(C)C)NC(=O)[C@@H](NC(=O)[C@@H](N)[C@@H](C)CC)C(C)C)C(C)C)[C@@H](C)CC)[C@@H](C)CC)C(=O)N[C@@H](CCC(=O)O)C(=O)N[C@@H](CCCCN)C(=O)N[C@@H](CCC(N)=O)C(=O)N[C@@H](CCC(N)=O)C(=O)N[C@@H](C)C(=O)N[C@H](C(=O)N[C@H](C(=O)N[C@@H](CC(N)=O)C(=O)N[C@@H](C)C(=O)N[C@@H](CCCNC(=N)N)C(=O)N[C@H](C(=O)N[C@@H](CC(C)C)C(=O)N[C@@H](C)C(=O)N[C@@H](CCCNC(=N)N)C(=O)N[C@H](C(N)=O)C(C)C)[C@@H](C)CC)[C@@H](C)O)[C@@H](C)O)C(=O)O [Compound 28] (H-IVLSLDVPIGLLQILLEQEKQEK([γGlu-Palmitoyl])EKQQATTNARILARV-NH2) | 7.08 |  |
| CC[C@H](C)[C@H](N)C(=O)N[C@H](C(=O)N[C@@H](CC(C)C)C(=O)N[C@@H](CO)C(=O)N[C@@H](CC(C)C)C(=O)N[C@@H](CC(=O)O)C(=O)N[C@H](C(=O)N1CCC[C@H]1C(=O)N[C@H](C(=O)NCC(=O)N[C@@H](CC(C)C)C(=O)N[C@@H](CC(C)C)C(=O)N[C@@H](CCC(N)=O)C(=O)N[C@H](C(=O)N[C@@H](CC(C)C)C(=O)N[C@@H](CC(C)C)C(=O)N[C@@H](CCC(=O)O)C(=O)N[C@@H](CCC(N)=O)C(=O)N[C@@H](CCC(=O)O)C(=O)N[C@@H](CCCCN)C(=O)N[C@@H](CCC(N)=O)C(=O)N[C@@H](CCC(=O)O)C(=O)N[C@@H](CCCCN)C(=O)N[C@@H](CCC(=O)O)C(=O)N[C@@H](CCCCN)C(=O)N[C@@H](CCCCNC(=O)COCCOCCNC(=O)COCCOCCNC(=O)CC[C@H](NC(=O)CC[C@H](NC(=O)CCCCCCCCCCCCCCCCC(=O)O)C(=O)O)C(=O)O)C(=O)N[C@@H](CCC(N)=O)C(=O)N[C@@H](C)C(=O)N[C@H](C(=O)N[C@H](C(=O)N[C@@H](CC(N)=O)C(=O)N[C@@H](C)C(=O)N[C@@H](CCC(N)=O)C(=O)N[C@H](C(=O)N[C@@H](CC(C)C)C(=O)N[C@@H](C)C(=O)N[C@@H](Cc1c[nH]cn1)C(=O)N[C@H](C(N)=O)C(C)C)[C@@H](C)CC)[C@@H](C)O)[C@@H](C)O)[C@@H](C)CC)[C@@H](C)CC)C(C)C)C(C)C [Compound 47] (H-IVLSLDVPIGLLQILLEQEKQEKEKK([AEEA-AEEA-γGlu-γGlu-C18 diacid])QATTNAQILAHV-NH2) | 8.34 |  |
| CC[C@H](C)[C@H](NC)C(=O)N[C@H](C(=O)N[C@@H](CC(C)C)C(=O)N[C@@H](CO)C(=O)N[C@@H](CC(C)C)C(=O)N[C@@H](CC(=O)O)C(=O)N[C@H](C(=O)N1CCC[C@H]1C(=O)N[C@H](C(=O)NCC(=O)N[C@@H](CC(C)C)C(=O)N[C@@H](CC(C)C)C(=O)N[C@@H](CCC(N)=O)C(=O)N[C@H](C(=O)N[C@@H](CC(C)C)C(=O)N[C@@H](CC(C)C)C(=O)N[C@@H](CCC(=O)O)C(=O)N[C@@H](CCC(N)=O)C(=O)N[C@@H](CCC(=O)O)C(=O)N[C@@H](CCCCN)C(=O)N[C@@H](CCC(N)=O)C(=O)N[C@@H](CCC(=O)O)C(=O)N[C@@H](CCCCN)C(=O)N[C@@H](CCC(=O)O)C(=O)N[C@@H](CCCCN)C(=O)N[C@@H](CCC(N)=O)C(=O)N[C@@H](CCC(N)=O)C(=O)N[C@@H](C)C(=O)N[C@@H](CCCCNC(=O)CC[C@H](NC(=O)CC[C@H](NC(=O)COCCOCCNC(=O)COCCOCCNC(=O)CC[C@H](NC(=O)CC[C@H](NC(=O)CCCCCCCCCCCCCCCCCCC(=O)O)C(=O)O)C(=O)O)C(=O)O)C(=O)O)C(=O)N[C@H](C(=O)N[C@@H](CC(N)=O)C(=O)N[C@@H](C)C(=O)N[C@@H](CCC(N)=O)C(=O)N[C@H](C(=O)N[C@@H](CC(C)C)C(=O)N[C@@H](C)C(=O)N[C@@H](CCC(N)=O)C(=O)N[C@H](C(N)=O)C(C)C)[C@@H](C)CC)[C@@H](C)O)[C@@H](C)CC)[C@@H](C)CC)C(C)C)C(C)C [Compound 62] (H-[NMeI]VLSLDVPIGLLQILLEQEKQEKEKQQAK([γGlu-γGlu-AEEA-AEEA-γGlu-γGlu-C20 diacid])TNAQILAQV-NH2) | 8.35 |  |
